What all share (assay): NCI anticancer screen, dose series, 48 h
For experiment [1], the system named is A549.
Experiment [2] concerns ACHN.
Experiment [3] concerns COLO 205.
Experiment [4] relates to HCT-116.
Experiment [5] has as its system HL-60.
The subject of experiment [6] is HOP-92.
Experiment [7] deals with Hs-578T.
For experiment [8], the system named is NCI-H226.
Experiment [9] has as its system NCI-H460.
Experiment [10] deals with NCI-H522.
Experiment [11] deals with OVCAR-8.
For experiment [12], the system named is RPMI-8226.
The subject of experiment [13] is SF-539.
The subject of experiment [14] is SNB-75.
The test system of experiment [15] is T47D.
In experiment [16] the test system is UO-31.
The test system of experiment [17] is HOP-62.
Experiment [18] deals with OVCAR-4.
In experiment [19] the test system is SR.

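Test compounds were applied to cells in 96-well plates for 48 hours at 5 doses. GI50 marks 50% less growth.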 The source made the active and inactive calls. No stated cut-off is given here; in the data, active = GI50 up to about 1.1 µM and inactive = higher. Bounds are passed on as bounds.

For the compound `Nc1cccc2nnccc12`, the GI50 in [1], in experiment [2], in [3], in experiment [4], in experiment [5] and in experiment [6] was > 100 µM (inactive) in each case. In addition, the GI50 was > 100 µM (inactive) in experiment [7]; > 100 µM (inactive) in experiment [8]; > 100 µM (inactive) in experiment [9]; 19 µM (inactive) in experiment [10]; > 100 µM (inactive) in experiment [11]; > 100 µM (inactive) in experiment [12]. Besides, the GI50 in experiment [13], in experiment [14], in experiment [15] and in experiment [16] was > 100 µM (inactive) in each case.
Regarding `COC(=O)c1ccccc1Nc1ccccc1C(=O)OC`, the GI50 was 93.1 µM (inactive) in [1]; > 100 µM (inactive) in [2]; > 100 µM (inactive) in experiment [3]; > 100 µM (inactive) in [4]; > 100 µM (inactive) in [5]; 59.6 µM (inactive) in [17]. The GI50 in [6] was 23.4 µM (inactive); in experiment [7] it was 20.8 µM (inactive); in [8], 23.7 µM (inactive); in experiment [9] it was > 100 µM (inactive); in experiment [10], 32.1 µM (inactive); in experiment [18], 48.9 µM (inactive). For the same compound, the GI50 in [11] is 89.7 µM (inactive); in experiment [12], 64.1 µM (inactive); in experiment [13] it was 83 µM (inactive); in [14], 39.3 µM (inactive); in experiment [15], 44.2 µM (inactive).
Take `COC(=O)c1c2c(cc3c1CC1(C3)Cc3cc4c(c(C(=O)OC)c3C1)CCCC4)CCCC2`: the GI50 was > 100 µM (inactive) in experiment [1]; > 100 µM (inactive) in experiment [2]; > 100 µM (inactive) in experiment [3]; > 100 µM (inactive) in experiment [4]; 24.2 µM (inactive) in experiment [5]; > 100 µM (inactive) in [17]. For the same compound, the GI50 in experiment [6], in experiment [7], in [8], in experiment [10], in experiment [18] and in experiment [11] was > 100 µM (inactive) each time. Also, the GI50 in experiment [12] is 49.8 µM (inactive); in experiment [13], > 100 µM (inactive); in [15], > 100 µM (inactive); in [16], 0.381 µM (active).
Turning to `OCC(Cn1cncn1)(c1ccc(F)cc1F)n1cncn1` (stereo not given), the GI50 in experiment [1], in [2], in experiment [3], in [4], in [5] and in [17] was > 100 µM (inactive) throughout. For the same compound, the GI50 in [7], in experiment [8], in experiment [9], in experiment [10], in experiment [11] and in experiment [12] was > 100 µM (inactive) in each case. Also, the GI50 in experiment [13], in [14], in experiment [19], in experiment [15] and in experiment [16] was > 100 µM (inactive) each time.
Consider `CC1=NN(c2ccccc2Cl)C2(C1)SCC(=O)N2c1nc2ccccc2s1` (stereo not given), for which the GI50 in experiment [1], in experiment [2], in [3], in [4], in [17] and in experiment [6] was > 100 µM (inactive) throughout. The GI50 in experiment [7], in [8], in experiment [9], in experiment [10], in experiment [18] and in experiment [11] was > 100 µM (inactive) in each case. For the same compound, the GI50 in [12], in experiment [13], in [14], in [15] and in experiment [16] was > 100 µM (inactive) each time.
`O/N=C1/CCCCC1NO` (stereo not given): the GI50 in [1], in experiment [2], in experiment [3], in experiment [4], in [5] and in experiment [17] was > 100 µM (inactive) throughout. The GI50 in experiment [7], in [8], in experiment [9], in experiment [18], in experiment [11] and in experiment [12] was > 100 µM (inactive) each time. Also, the GI50 in experiment [13], in experiment [14], in [19], in experiment [15] and in [16] was > 100 µM (inactive) each time.
Turning to `COc1ccc(NC(C)c2ccncc2)cc1` (stereo not given), the GI50 in experiment [1], in experiment [2], in experiment [3], in [4], in [17] and in experiment [6] was > 100 µM (inactive) each time. Besides, the GI50 in experiment [7], in [8], in [9], in experiment [10], in experiment [18] and in experiment [11] was > 100 µM (inactive) each time. In addition, the GI50 in [12], in [13], in experiment [14], in experiment [15] and in [16] was > 100 µM (inactive) each time.
With `CNc1cc(OCc2ccccc2)c(OC)cc1C(=O)N1CCC[C@H]1CO`, the GI50 was > 100 µM (inactive) in experiment [1]; > 100 µM (inactive) in [2]; > 100 µM (inactive) in experiment [3]; > 100 µM (inactive) in experiment [4]; 44.1 µM (inactive) in experiment [5]; > 100 µM (inactive) in experiment [17]. For the same compound, the GI50 in experiment [7] is > 100 µM (inactive); in [8], > 100 µM (inactive); in experiment [10] it was 73.8 µM (inactive); in experiment [18] it was 70.1 µM (inactive); in [11], > 100 µM (inactive); in [13], > 100 µM (inactive). Besides, the GI50 in experiment [14] is > 100 µM (inactive); in [15], > 100 µM (inactive); in [16], 63.2 µM (inactive).
On to `O=C(c1ccccc1)C(C(=O)c1ccccc1)c1nc2ccccc2sc1=O`, for which the GI50 in [1] is 8.91 µM (inactive); in experiment [2], 9.84 µM (inactive); in [3], 12.5 µM (inactive); in [4], 12 µM (inactive); in experiment [5], > 25 µM (inactive); in experiment [17], 9.59 µM (inactive). Also, the GI50 in experiment [6] is 2.72 µM (inactive); in [7], 24.5 µM (inactive); in experiment [8], 7.08 µM (inactive); in experiment [9], 11.4 µM (inactive); in [10], 9.57 µM (inactive); in experiment [18] it was 9.71 µM (inactive). Besides, the GI50 was 9.29 µM (inactive) in experiment [11]; 7.18 µM (inactive) in experiment [12]; 17.1 µM (inactive) in experiment [13]; > 25 µM (inactive) in [15]; 10.4 µM (inactive) in [16].
Turning to `CN1CC2=C(N=C(S)NC2c2ccccc2)/C(=C/c2ccccc2)C1` (stereo not given), the GI50 in [1] is 30.3 µM (inactive); in [2], 52.6 µM (inactive); in experiment [3], 34.8 µM (inactive); in experiment [4], 13 µM (inactive); in experiment [5], > 10 µM (inactive); in [17], > 100 µM (inactive). For the same compound, the GI50 in experiment [7] is 40.6 µM (inactive); in [8], > 100 µM (inactive); in experiment [9], 32.1 µM (inactive); in experiment [10] it was 43 µM (inactive); in experiment [11] it was > 10 µM (inactive); in experiment [12] it was 46.6 µM (inactive). For the same compound, the GI50 in [13] was 83.9 µM (inactive); in [14], 48 µM (inactive); in experiment [19] it was 30.4 µM (inactive); in [15], 44.8 µM (inactive); in [16], 60.5 µM (inactive).
In the case of `CC(C)(C)c1ccc(NS(=O)(=O)c2ccc(N)cc2)cc1`, the GI50 is 27.1 µM (inactive) in [1]; 29.4 µM (inactive) in [2]; 16.1 µM (inactive) in [3]; 18 µM (inactive) in [4]; 18.1 µM (inactive) in experiment [5]; 0.634 µM (active) in [17]. The GI50 in [7] is 27.4 µM (inactive); in experiment [8] it was 22.2 µM (inactive); in experiment [9], 33.7 µM (inactive); in experiment [10], 17 µM (inactive); in [18] it was 35.8 µM (inactive); in experiment [11] it was 27.5 µM (inactive). Also, the GI50 was 11.6 µM (inactive) in [12]; 25.8 µM (inactive) in [13]; 30.8 µM (inactive) in [14]; 28.3 µM (inactive) in [15]; 24.9 µM (inactive) in experiment [16].
In the case of `C[C@@H]1CCC2[C@@H](C)C(=O)O[C@@H]3C4C[C@@H]1[C@@]23OO[C@@]4(C)O` (stereo not given in full), the GI50 in [1] was > 100 µM (inactive); in experiment [2] it was 58.7 µM (inactive); in experiment [3], > 100 µM (inactive); in experiment [4] it was 88.3 µM (inactive); in [17], 48.3 µM (inactive); in experiment [6], > 100 µM (inactive). The GI50 in experiment [7] was > 100 µM (inactive); in experiment [9], 52 µM (inactive); in experiment [10], 40.8 µM (inactive); in [18], > 100 µM (inactive); in [11] it was 82.8 µM (inactive); in [12] it was > 100 µM (inactive). The GI50 in [13] was 55.6 µM (inactive); in [14], 75.5 µM (inactive); in experiment [19], > 100 µM (inactive); in experiment [15], 87.3 µM (inactive); in [16], 27.9 µM (inactive).

The record behind these values is ChEMBL document CHEMBL1201862, “PubChem BioAssay data set” (2004).
